Tests used:
[1] = test system: Zymoseptoria tritici; experiment: Leaf blotch of wheat (SEPTTR) disease control on wheat seedlings; type: in vivo; design: key to SEPTTR 1DP, HV activity at 100 ppm (% control rating) / SEPTTR 3DC, HV activity at 100 ppm (% control rating) / SEPTTR disease control, 1DP / SEPTTR disease control, 3DC / SEPTTR 1DP disease control rating, HV activity / SEPTTR 3DC disease control rating, HV activity / SEPTTR 3DC, LV activity at 125.1 g/H (% Control rating) / SEPTTR 1DP, LV activity at 125.1 g/H (% Control rating) / SEPTTR 1DP disease control rating, LV activity at 125.1 g/H / SEPTTR 3DC disease control rating, LV activity at 125.1 g/H / SEPTTR 3DC disease control rating, HV activity at 100 ppm / SEPTTR 1DP disease control rating, HV activity at 100 ppm / HV activity at 100 ppm SEPTTR 3DC (disease control rating) / HV activity at 100 ppm SEPTTR 1DP (disease control rating) / LV activity at 125.1 g/H SEPTTR 1DP (disease control rating) / LV activity at 125.1 g/H SEPTTR 3DC (disease control rating): A: > 80; B: ≤ 80; C: Not Tested; D: No Activity Observed in the Reported Assay; conditions: for SEPTTR 1DP disease control rating, HV activity / SEPTTR 3DC disease control rating, HV activity: HV application at 100 ppm
[2] = test system: Puccinia triticina; experiment: Wheat brown rust (PUCCRT) disease control on wheat seedlings; type: in vivo; conditions: for PUCCRT 1DP disease control rating, HV activity / PUCCRT 3DC disease control rating, HV activity: HV application at 100 ppm
[3] = HV activity at 100 ppm, 1 Day Protectant, wheat
[4] = HV activity at 100 ppm, 3 Day Curative, wheat
[5] = 1 Day Protectant, wheat leaf blotch
[6] = 3 Day Curative, wheat leaf blotch
[7] = high volume application, 100 ppm, 1DP
[8] = high volume application, 100 ppm, 3DC
[9] = 1 Day Protectant, wheat brown rust
[10] = 3 Day Curative, wheat brown rust
[11] = low volume application, 125.1 g/H, 1 Day Protectant
[12] = low volume application, 125.1 g/H, 3 Day Curative

Row | Structure (SMILES) | SEPTTR 1DP disease control rating, HV activity [1, 5] | SEPTTR 3DC disease control rating, HV activity [1, 6] | PUCCRT 1DP disease control rating, HV activity [2, 9] | PUCCRT 3DC disease control rating, HV activity [2, 10] | SEPTTR 1DP, LV activity at 125.1 g/H (% Control rating) [1, 11] | SEPTTR 3DC, LV activity at 125.1 g/H (% Control rating) [1, 12] | PUCCRT 1DP, LV activity at 125.1 g/H (% Control rating) [2, 11] | PUCCRT 3DC, LV activity at 125.1 g/H (% Control rating) [2, 12] | further results
1 | CC[C@H](Cc1ccccc1)[C@@H](OCC(C)C)[C@H](C)OC(=O)[C@H](C)NC(=O)c1nccc(OC)c1O [Cmpd 293, (S)-(2S,3R,4R)-4-benzyl-3-isobutoxyhexan-2-yl-2-(3-hydroxy-4-methoxypicolinamido)propanoate] | A (> 80) | B (≤ 80) | A (> 80) | B (≤ 80) | – | – | – | – | SEPTTR disease control, 1DP [1, 3]: A (> 80); SEPTTR disease control, 3DC [1, 4]: B (≤ 80); SEPTTR 1DP, HV activity at 100 ppm (% control rating) [1, 7]: A (> 80); SEPTTR 3DC, HV activity at 100 ppm (% control rating) [1, 8]: B (≤ 80); PUCCRT disease control, 1DP [2, 3]: A (> 80); PUCCRT disease control, 3DC [2, 4]: B (≤ 80); PUCCRT 1DP, HV activity at 100 ppm (% control rating) [2, 7]: A (> 80); PUCCRT 3DC, HV activity at 100 ppm (% control rating) [2, 8]: B (≤ 80)
2 | COc1ccnc(C(=O)N[C@@H](C)C(=O)O[C@@H](C)[C@@H](Oc2ccccc2)C(C)C)c1O [Cmpd 347] | B (≤ 80) | B (≤ 80) | B (≤ 80) | A (> 80) | – | – | – | – | –
3 | COc1ccnc(C(=O)N[C@@H](Cc2ccccc2)C(=O)O[C@@H](C)[C@H](Oc2cccc(F)c2)c2ccccc2)c1OC(C)=O [Cmpd 577] | – | – | – | – | B (≤ 80) | D | A (> 80) | B (≤ 80) | –
4 | COc1ccnc(C(=O)N[C@@H](C)C(=O)O[C@@H](C)[C@H](OC(=O)C(C)C)C(C)C)c1OCOC(C)=O [Cmpd 623] | – | – | – | – | D | B (≤ 80) | A (> 80) | A (> 80) | –
5 | CC[C@H](C)[C@H](NC(=O)c1nccc(OC)c1OCOC(C)=O)C(=O)O[C@@H](C)[C@H](Oc1cc(F)ccc1F)C(C)C [Cmpd 619] | – | – | – | – | D | D | A (> 80) | A (> 80) | –
6 | COc1ccnc(C(=O)N[C@@H](C)C(=O)O[C@@H](C)[C@@H](CC(C)C)OCC(C)C)c1OC(C)=O [Cmpd 1111] | – | – | – | – | – | – | – | – | LV activity at 125.1 g/H SEPTTR 1DP (disease control rating) ([1]; low volume application, 125.1 g/H, 1 Day Protectant, wheat leaf blotch): B (≤ 80); LV activity at 125.1 g/H SEPTTR 3DC (disease control rating) ([1]; low volume application, 125.1 g/H, 3 Day Curative, wheat leaf blotch): A (> 80); LV activity at 125.1 g/H PUCCRT 1DP (disease control rating) ([2]; low volume application, 125.1 g/H, 1 Day Protectant, wheat brown rust): A (> 80); LV activity at 125.1 g/H PUCCRT 3DC (disease control rating) ([2]; low volume application, 125.1 g/H, 3 Day Curative, wheat brown rust): A (> 80)
7 | CC[C@@H](Cc1ccccc1)[C@H](Oc1ccccc1)[C@H](C)OC(=O)[C@H](C)NC(=O)c1nccc(OC)c1O [Cmpd 313] | A (> 80) | B (≤ 80) | A (> 80) | A (> 80) | – | – | – | – | –
8 | CCC(CC)[C@@H](Oc1ccc(F)cc1)[C@H](C)OC(=O)[C@@H](NC(=O)c1nccc(OC)c1O)C(C)C [Cmpd 405] | B (≤ 80) | B (≤ 80) | A (> 80) | B (≤ 80) | – | – | – | – | –
